{"source": "patent US20240336938A1", "about": "“COMPOSITIONS AND METHODS FOR EFFECTIVE DELIVERY OF POLYNUCLEOTIDES TO CELLS” (WUHAN UNIVERSITY, priority 2021, published 2024)", "key": {"[1]": {"system": "STING", "test": "STING inhibitor pretreatment of T cells before DNA electroporation", "format": "cell-based, human"}, "[2]": {"system": "STING", "test": "STING inhibitor pretreatment of THP-1 cells before HSV-1 stimulation, qPCR", "format": "cell-based, human", "settings": "THP1 cells, indicated doses"}}, "data": [{"compound": "CCc1ccc(NC(=O)Nc2c[nH]c3ccccc23)cc1", "note": "[H151]", "values": [{"measurement": "IFNβ and ISG56 expression in DNA transfected T cells under inhibitor", "setting": "[1]; 1 μM pretreatment, qPCR", "result": "upregulated"}, {"measurement": "rescue of DNA-induced cell death", "setting": "[1]; 1 μM, 16 h pretreatment, cell number 72 h post-EP", "result": "failed to rescue DNA-induced cell death"}, {"measurement": "ISG56 and IFN-β response to HSV-1", "setting": "[2]", "result": "positive dose-response"}]}]}
